Among the data in ChEMBL document CHEMBL4354877, “MymA Bioactivated Thioalkylbenzoxazole Prodrug Family Active against Mycobacterium tuberculosis” (J Med Chem, 2020) are CLH and IC90 values, retold here.

Structures are written as SMILES.

The nature of data set [1]: Intrinsic clearance in human liver microsomes at 0.5 uM incubated for 45 mins in presence of NADPH by LC-MS/MS analysis. The data set is classed as ADME, Microsome. The settings on record: 0.75 h.
A short description of data set [2]: Intrinsic clearance in mouse liver microsomes at 0.5 uM incubated for 45 mins in presence of NADPH by LC-MS/MS analysis. Type of data set: ADME, Microsome. The settings on record: 0.75 h.
Data set [3] deals with Mycobacterium tuberculosis. Kind of data set: Antimycobacterial activity against Mycobacterium tuberculosis H37Rv intracellular forms infected in human THP1 cells assessed as inhibition of microbial growth incubated for 5 days by luciferase reporter gene assay. Type of data set: functional. To be noted: THP-1, 120 h.

Turning to `O=C(CCSc1nc2cccc(Cl)c2o1)N1CCCC1`, the CLH in data set [1] worked out at 13.5 mL/min/g; in data set [2], 121.9 mL/min/g. Further, the IC90 in data set [3] worked out at 2.7 µM.
The matching figures for `CN(C)C(=O)CCSc1nc2cc(Cl)ccc2o1`: 2.7 mL/min/g, 41.8 mL/min/g and 30 µM.
The matching figures for `O=C(CCSc1nc2cc(Cl)ccc2o1)N1CCS(=O)(=O)CC1`: 0.4 mL/min/g, 2.3 mL/min/g and more than 50 µM.
Consider `CS(=O)(=O)C1CCN(C(=O)CCSc2nc3cc(Cl)ccc3o2)C1` (racemic), for which the CLH in data set [1] is less than 0.4 mL/min/g; in data set [2] it was 2.1 mL/min/g. The IC90 in data set [3] was more than 50 µM.
Taken in the same sequence, the figures for `O=C(CCSc1nc2cc(Cl)ccc2o1)N1CCC(F)(F)C1` were 11.3 mL/min/g, 83.6 mL/min/g and 1.1 µM.
Turning to `CCNC(=O)CCSc1nc2cc(Cl)ccc2o1`, the IC90 in data set [3] was more than 50 µM.
On to `COc1ccc2oc(SCCC(=O)N3CCCC3)nc2c1`, for which the CLH in data set [1] worked out at 6.1 mL/min/g; in data set [2], 197.8 mL/min/g. Further, the IC90 in data set [3] amounted to 4 µM.
Taken in the same sequence, the figures for `CC1CCN(C(=O)CCSc2nc3cc(Cl)ccc3o2)C1` (stereo not drawn) were 10.1 mL/min/g, 90.7 mL/min/g and 3.1 µM.
The matching figures for `O=C(CSc1nc2cc(Cl)ccc2o1)N1CCCC1`: 1.6 mL/min/g, 153.6 mL/min/g and 36 µM.
The matching figures for `O=C(CCSc1nc2ccccc2o1)N1CCCC1`: 5.1 mL/min/g, 161.2 mL/min/g and 4.4 µM.
For the compound `O=S1(=O)CCCN1CCCSc1nc2cc(Cl)ccc2o1`, the CLH in data set [1] is 4.7 mL/min/g; in data set [2] it was 115.2 mL/min/g. Also, the IC90 in data set [3] came to 7.7 µM.
`O=C(CCSc1nc2cc(N3CCOCC3)ccc2o1)N1CCCC1`: the CLH was 1.1 mL/min/g in data set [1] and 18.7 mL/min/g in data set [2]. The IC90 in data set [3] is 27.2 µM.
The matching figures for `CN(C(=O)CCSc1nc2cc(Cl)ccc2o1)C1CCS(=O)(=O)C1` (stereo not drawn): 1.5 mL/min/g, 0.8 mL/min/g and 25.4 µM.
With `O=C(CCSc1nc2cc(Cl)ccc2o1)NC1CCCC1`, the CLH in data set [1] turned out to be 11.3 mL/min/g. Further, the IC90 in data set [3] was more than 50 µM.
With `O=C(CCSc1nc2ccc(Cl)cc2o1)N1CCCC1`, the CLH stood at 6.6 mL/min/g in data set [1] and 109.4 mL/min/g in data set [2]. The IC90 in data set [3] was 1.6 µM.
Regarding `CN(C(=O)CCSc1nc2cc(F)ccc2o1)C1CCS(=O)(=O)CC1`, the CLH in data set [1] is less than 0.4 mL/min/g; in data set [2], 0.6 mL/min/g. The IC90 in data set [3] was more than 50 µM.
As for `O=C(CCSc1nc2cc(Cl)ccc2o1)N1CCOCC1`, the CLH is 2.2 mL/min/g in data set [1] and 36.5 mL/min/g in data set [2]. In addition, the IC90 in data set [3] is 11.4 µM.
Taken in the same sequence, the figures for `CS(=O)(=O)C1CCN(C(=O)CCSc2nc3cc(Cl)ccc3o2)CC1` were 0.5 mL/min/g, 2.6 mL/min/g and more than 50 µM.
Taken in the same sequence, the figures for `O=C(CCSc1nc2cc(Cl)ccc2o1)N1CCC1` were 3.7 mL/min/g, 17.9 mL/min/g and more than 50 µM.
The matching figures for `O=C(CCSc1nc2cc(Cl)ccc2o1)N1CCS(=O)(=O)C1`: 1.7 mL/min/g, 8.9 mL/min/g and more than 50 µM.
On to `O=C(CCSc1nc(-c2ccccc2)co1)N1CCCC1`, for which the CLH in data set [1] is 20.9 mL/min/g. Moreover, the IC90 in data set [3] was more than 50 µM.
For the compound `Cc1ccc2oc(SCCC(=O)N3CCCC3)nc2c1`, in data set [1], the CLH turned out to be 9.3 mL/min/g. The IC90 in data set [3] was 8.4 µM.
Taken in the same sequence, the figures for `CN(CCC(=O)N1CCCC1)c1nc2cc(Cl)ccc2o1` were 1.9 mL/min/g and more than 50 µM.
